Data on twelve compounds can be found in patent US20110159111A1, “PHARMACEUTICAL COMBINATIONS” (priority 2006, published 2011).

Where two headings read alike, the source gives them in different places.

Data set [1] in a line: Thermogravimetric analysis (TGA). As to conditions: heated at 10° C./min. The data set is classed as physicochemical. The protocol: Approximately 5 mg of sample (accurately weighed) was placed into a platinum TGA pan and loaded into a TGA 7 gravimetric analyser. The sample under study was then heated at a rate of 10° C./min (from ambient to 300° C.) and the resulting change in weight monitored. A dry nitrogen purge gas at a flow rate of 20 ml/min was used to produce an inert atmosphere and prevent oxidation of the sample during heating. Prior to analysis the instrument was weight calibrated using a 100 mg reference standard and temperature calibrated using an Alumel reference standard (using the Curie point transition temperature).

A short description of data set [2]: Vapour sorption/desorption analysis (IgaSorp balance). The data set is classed as physicochemical. The protocol: Approximately 20 mg of sample was placed into a wire-mesh vapour sorption balance pan and loaded into an ‘IgaSorp’ vapour sorption balance (Hiden Analytical Instruments) held at 25+/−0.1° C. The sample was then dried by maintaining a 0% humidity environment (using mass flow control apparatus) until no further weight change was recorded. Subsequently, the sample was then subjected to a ramping profile from 0-90% relative humidity (% RH) at 10% RH increments, maintaining the sample at each step until equilibration had been attained (99.5% step completion).
Upon reaching equilibration, the % RH within the apparatus was ramped to the next step and the equilibration procedure repeated. After completion of the sorption cycle, the sample was then dried using the same procedure. The weight change during the sorption/desorption cycles was then monitored, allowing for the hygroscopic nature of the sample to be determined.

For data set [3], the system named is P-glycoprotein-overexpressing subline of CCRF-CEM. The conditions noted are these: cited from earlier work.
Data set [4] in a line: Solubilities of acid addition salts of 1-(2,6-difluorophenyl)-N-[3-(5-morpholin-4-ylmethyl-1H-benzimidazol-2-yl)-1H-pyrazol-4-yl]-urea. The data set is classed as physicochemical. The protocol: This was carried out as described in Example 61 of WO 2006/070195 at pages 173 to 175 (the content of which is incorporated herein by reference).
In data set [5] the test system is Acute Promyelocytic Leukemia. The conditions noted are these: APL patients; cited from earlier work.
For data set [6] the following is noted: antitumour agent; cited from earlier work.
Another data set deals with OVCAR-3 tumour cells. The conditions noted are these: concentrations of 50 and 100 microM; cited from earlier work.
Another data set concerns the target T1, PKG (Homo sapiens, UniProt Q13976).
T1 sequence (Q13976 1-671): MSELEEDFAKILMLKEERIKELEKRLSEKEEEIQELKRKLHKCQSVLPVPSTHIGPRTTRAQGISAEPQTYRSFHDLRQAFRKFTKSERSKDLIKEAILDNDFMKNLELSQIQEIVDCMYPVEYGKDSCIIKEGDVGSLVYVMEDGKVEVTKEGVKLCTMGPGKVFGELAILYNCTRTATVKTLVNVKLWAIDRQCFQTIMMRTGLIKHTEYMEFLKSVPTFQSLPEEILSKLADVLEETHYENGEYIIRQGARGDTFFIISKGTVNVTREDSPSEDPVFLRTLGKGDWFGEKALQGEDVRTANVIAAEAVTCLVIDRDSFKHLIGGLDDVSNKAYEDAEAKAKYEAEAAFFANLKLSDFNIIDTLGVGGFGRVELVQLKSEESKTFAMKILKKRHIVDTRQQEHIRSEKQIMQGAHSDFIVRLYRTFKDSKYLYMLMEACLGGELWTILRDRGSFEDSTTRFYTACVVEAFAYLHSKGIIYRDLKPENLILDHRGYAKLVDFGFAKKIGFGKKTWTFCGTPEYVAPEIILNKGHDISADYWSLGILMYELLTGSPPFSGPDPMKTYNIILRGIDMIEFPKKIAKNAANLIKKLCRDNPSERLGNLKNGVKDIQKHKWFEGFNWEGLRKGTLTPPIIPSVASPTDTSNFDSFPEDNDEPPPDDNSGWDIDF
As to conditions: cited from earlier work.

The subject of another data set is PKC. As to conditions: cited from earlier work.
A short description of data set [7]: Gravimetric vapour sorption (GVS). As to conditions: forms of 1-cyclopropyl-3-[3-(5-morpholin-4-ylmethyl-1H-benzoimidazol-2-yl)-1H-pyrazol-4-yl]-urea; 25° C., 0-95% RH. The data set is classed as physicochemical. The protocol:
E. Gravimetric Vapour Sorption (GVS):
The sample size was ca. 10-25 mg. […] The sample was loaded and unloaded at room humidity and temperature (ca. 40% RH, 25° C.) and analysed afterwards by XRPD (using a Bruker AXS C2 GADDS system).

For data set [8], the system named is chronic lymphocytic leukaemia. The conditions noted are these: initial therapy, symptomatic CLL patients; cited from earlier work.
Data set [9] has as its system Chronic Myeloid Leukaemia. As to conditions: CML patients in blast phase; cited from earlier work.
Data set [10] concerns human colon carcinoma cell line HCT 116. As to the kind of experiment: Anti-proliferative activity, HCT-116 cell line (Set B). The data set is classed as cell-based. As to conditions: HCT 116 (ECACC No. 91091005), Set B Example 1. An excerpt: Anti-proliferative Activity
See Example 15 of WO 2006/077426 at pages 100-101 (which is incorporated herein by reference).

For data set [11] the following is noted: clinical studies; cited from earlier work.

Take `CS(=O)(=O)N1CCC(NC(=O)c2n[nH]cc2NC(=O)c2c(Cl)cccc2Cl)CC1`: in data set [1] (ambient to 300° C.), the “TGA significant event (thermally induced partial degradation prior to melt)” value is “about 288 °C”. Further, the TGA mass loss result in data set [1] (up to 150° C., crystals from Example 5 Step 8) was “approximately 0.2%”. Moreover, the “weight loss during initial drying” value in data set [2] (0% RH, 25° C.) is “approximately 0.01%”. Also, the “total weight increase upon equilibration” value in data set [2] (stepwise 0-90% RH, equilibration at 90% RH, 25° C.) amounted to 0.24%. Further, the “hygroscopicity / hydrate formation” value in [2] (storage in elevated humidity conditions) was “physically stable with regard to hygroscopicity”.

With `C/C1=C/C[C@@H](/C(C)=C/c2csc(C)n2)OC(=O)C[C@H](O)C(C)(C)C(=O)[C@H](C)[C@@H](O)[C@@H](C)CCC1` [desoxyepothilone B], the IC50 in data set [3] was 0.017 µM. For the compound “1-(2,6-difluorophenyl)-N-[3-(5-morpholin-4-ylmethyl-1H-benzimidazol-2-yl)-1H-pyrazol-4-yl]-urea [D-glucuronate]”, in [4] (acid addition salts of 1-(2,6-difluorophenyl)-N-[3-(5-morpholin-4-ylmethyl-1H-benzimidazol-2-yl)-1H-pyrazol-4-yl]-urea, liquid carrier (e.g. water)), the solubility result is reported as “greater than 25 mg/ml”. For `CC1=C(/C=C/C(C)=C/C=C/C(C)=C/C(=O)O)C(C)(C)CCC1` [Tretinoin, all-trans retinoic acid], in [5], the remissions induced is 64-100%. Regarding `CCN[C@H]1CO[C@@H](O[C@H]2[C@H](O[C@H]3C#C/C=C\C#C[C@]4(O)CC(=O)C(NC(=O)OC)=C3/C4=C\CSSSC)O[C@H](C)[C@@H](NO[C@H]3C[C@H](O)[C@H](SC(=O)c4c(C)c(I)c(O[C@@H]5O[C@@H](C)[C@H](O)[C@@H](OC)[C@H]5O)c(OC)c4OC)[C@@H](C)O3)[C@@H]2O)C[C@@H]1OC` [Calicheamicin], the “potency relative to adriamycin” value in data set [6] is reported as “over 1,000 times”.

For the compound `O=S(=O)(NCCNCC=C(c1ccccc1)c1ccccc1)c1cccc2cnccc12` [NL-71-101], in the data set with OVCAR-3 tumour cells, the apoptosis result was “induced apoptosis”. Besides, the IC50 on PKG was 36 µM; in the data set on PKC, 104 µM. In the case of `C[C@H](O)C(=O)O.O=C(Nc1c[nH]nc1-c1nc2cc(CN3CCOCC3)ccc2[nH]1)NC1CC1` [L-lactate salt, 1-cyclopropyl-3-[3-(5-morpholin-4-ylmethyl-1H-benzoimidazol-2-yl)-1H-pyrazol-4-yl]-urea], the GVS isotherm behaviour entry in data set [7] is “does not display hygroscopic behaviour and does not form a hydrate”.

For the compound `Nc1nc(F)nc2c1ncn2[C@@H]1O[C@H](CO)[C@@H](O)[C@@H]1O` [fludarabine], in data set [8], the “duration of progression-free survival” value is on record as 33 months and the “rate of complete responses” value was 27%. Consider `Cc1ccc(NC(=O)c2ccc(CN3CCN(C)CC3)cc2)cc1Nc1nccc(-c2cccnc2)n1` [imatinib, 4-[(4-methyl-1-piperazinyl)methyl]-N-[4-methyl-3-[[4-(3-pyridinyl)-2-ylpyridinyl]amino]-phenyl]benzamide methanesulfonate], for which the duration of remissions in [9] is 2-6 months.

Consider `O=C(NC1CCNCC1)c1n[nH]cc1NC(=O)c1c(Cl)cccc1Cl` [Example 1], for which the concentration for half-maximal inhibition (IC50) in data set [10] is less than 20 µM. Consider `CCCCCCCCCCCCCCCCCCOP(=O)([O-])OC1CC[N+](C)(C)CC1` [KRX-0401], for which the half-life in [11] was approximately 100 h.

Turning to `O=C(Nc1c[nH]nc1-c1nc2cc(CN3CCOCC3)ccc2[nH]1)Nc1c(F)cccc1F` [esylate, 1-(2,6-difluorophenyl)-N-[3-(5-morpholin-4-ylmethyl-1H-benzimidazol-2-yl)-1H-pyrazol-4-yl]-urea], in [4], the solubility was more than 100 mg/mL.

By IC50 is commonly meant the concentration that gives 50% inhibition. The solubility is the concentration that dissolves in the medium under given conditions. The half-life is the time needed for the level to fall by half in the phase considered.
